Measured values from patent US11787839B2, “Targeting α2δ-1-bound glutamate receptors for treating diseases and disorders” (Board of Regents, The University of Texas System, priority 2017, dated 2023).

What was measured:
paclitaxel-treated rats = assay: Paclitaxel-induced pain hypersensitivity in rats; assay type: in vivo, rat; conditions: intrathecal 5 μg pregabalin, 1 μg peptides
Description: To induce neuropathic pain, rats and mice were intraperitoneally injected with paclitaxel (2 mg/kg; TEVA Pharmaceuticals, North Wales, Pa.) every 2 days for a total of 4 injections (days 1, 3, 5 and 7; total dose, 8 mg/kg), as described previously (Polomano et al., 2001). Animals in the control group were intraperitoneally injected with the vehicle (Cremophor EL/ethanol, 1:1) on the same 4 days. The presence of tactile allodynia was confirmed 10 to 12 days after drug treatment. Intrathecal catheters were implanted in some paclitaxel-treated rats during isoflurane-induced anesthesia. Briefly, a small puncture was made in the atlanto-occipital membrane of the cisterna magna and inserted a PE-10 catheter with the caudal tip reaching the lumbar enlargement of the spinal cord (Chen et al., 2014a; Xie et al., 2016).
Behavioral assessment of nociception: To measure tactile allodynia, mice or rats were individually placed on a mesh floor within a suspended chamber. […]
To quantify the mechanical nociceptive threshold in rats, the paw pressure (Randall-Selitto) test was conducted on the left hindpaw using an analgesiometer (Ugo Basile, Varese, Italy). […] When the rat withdrew its paw or vocalized, the pedal was immediately released, and the withdrawal threshold was recorded (Chen et al., 2014a). […]
To assess the thermal sensitivity of rats, the were placed individually on the glass surface of a thermal testing apparatus (IITC Life Sciences, Woodland Hills, Calif.). […] The paw withdrawal latency was recorded with a timer, and the hindpaw was tested twice to obtain an average time. […] After the threshold temperature was recorded, the mice were immediately removed from the plate. The heat threshold measurement was repeated 30 min later, and the average of the 2 recorded temperatures was considered as the heat threshold. The cold threshold was measured by cooling the plate from 30° C. at a rate of 6° C./min until nocifensive behaviors were observed. […]

α2δ-1-GluN1 interaction = molecular target: T1, α2δ-1-GluN1 interaction (Rattus norvegicus, UniProt P35439+Q00959); assay type: cell-based; conditions: HEK293; 0.01, 0.1, or 1 mM peptide
T1 construct: expressed in transfected cells; host or cells: HEK293

[1] = molecular target: T2, N-type Ca2+ channels (Cav2.2, Cavb1, α2δ-1) (UniProt P54290+Q00975); assay: VACC (N-type Ca2+ channel) currents in HEK293 cells; assay type: cell-based; conditions: HEK293 cotransfected with Cav2.2, Cavb1 and α2δ-1, 60 min
T2 construct: expressed in transfected cells; host or cells: HEK293
T2 sequence (Q00975 whole entry): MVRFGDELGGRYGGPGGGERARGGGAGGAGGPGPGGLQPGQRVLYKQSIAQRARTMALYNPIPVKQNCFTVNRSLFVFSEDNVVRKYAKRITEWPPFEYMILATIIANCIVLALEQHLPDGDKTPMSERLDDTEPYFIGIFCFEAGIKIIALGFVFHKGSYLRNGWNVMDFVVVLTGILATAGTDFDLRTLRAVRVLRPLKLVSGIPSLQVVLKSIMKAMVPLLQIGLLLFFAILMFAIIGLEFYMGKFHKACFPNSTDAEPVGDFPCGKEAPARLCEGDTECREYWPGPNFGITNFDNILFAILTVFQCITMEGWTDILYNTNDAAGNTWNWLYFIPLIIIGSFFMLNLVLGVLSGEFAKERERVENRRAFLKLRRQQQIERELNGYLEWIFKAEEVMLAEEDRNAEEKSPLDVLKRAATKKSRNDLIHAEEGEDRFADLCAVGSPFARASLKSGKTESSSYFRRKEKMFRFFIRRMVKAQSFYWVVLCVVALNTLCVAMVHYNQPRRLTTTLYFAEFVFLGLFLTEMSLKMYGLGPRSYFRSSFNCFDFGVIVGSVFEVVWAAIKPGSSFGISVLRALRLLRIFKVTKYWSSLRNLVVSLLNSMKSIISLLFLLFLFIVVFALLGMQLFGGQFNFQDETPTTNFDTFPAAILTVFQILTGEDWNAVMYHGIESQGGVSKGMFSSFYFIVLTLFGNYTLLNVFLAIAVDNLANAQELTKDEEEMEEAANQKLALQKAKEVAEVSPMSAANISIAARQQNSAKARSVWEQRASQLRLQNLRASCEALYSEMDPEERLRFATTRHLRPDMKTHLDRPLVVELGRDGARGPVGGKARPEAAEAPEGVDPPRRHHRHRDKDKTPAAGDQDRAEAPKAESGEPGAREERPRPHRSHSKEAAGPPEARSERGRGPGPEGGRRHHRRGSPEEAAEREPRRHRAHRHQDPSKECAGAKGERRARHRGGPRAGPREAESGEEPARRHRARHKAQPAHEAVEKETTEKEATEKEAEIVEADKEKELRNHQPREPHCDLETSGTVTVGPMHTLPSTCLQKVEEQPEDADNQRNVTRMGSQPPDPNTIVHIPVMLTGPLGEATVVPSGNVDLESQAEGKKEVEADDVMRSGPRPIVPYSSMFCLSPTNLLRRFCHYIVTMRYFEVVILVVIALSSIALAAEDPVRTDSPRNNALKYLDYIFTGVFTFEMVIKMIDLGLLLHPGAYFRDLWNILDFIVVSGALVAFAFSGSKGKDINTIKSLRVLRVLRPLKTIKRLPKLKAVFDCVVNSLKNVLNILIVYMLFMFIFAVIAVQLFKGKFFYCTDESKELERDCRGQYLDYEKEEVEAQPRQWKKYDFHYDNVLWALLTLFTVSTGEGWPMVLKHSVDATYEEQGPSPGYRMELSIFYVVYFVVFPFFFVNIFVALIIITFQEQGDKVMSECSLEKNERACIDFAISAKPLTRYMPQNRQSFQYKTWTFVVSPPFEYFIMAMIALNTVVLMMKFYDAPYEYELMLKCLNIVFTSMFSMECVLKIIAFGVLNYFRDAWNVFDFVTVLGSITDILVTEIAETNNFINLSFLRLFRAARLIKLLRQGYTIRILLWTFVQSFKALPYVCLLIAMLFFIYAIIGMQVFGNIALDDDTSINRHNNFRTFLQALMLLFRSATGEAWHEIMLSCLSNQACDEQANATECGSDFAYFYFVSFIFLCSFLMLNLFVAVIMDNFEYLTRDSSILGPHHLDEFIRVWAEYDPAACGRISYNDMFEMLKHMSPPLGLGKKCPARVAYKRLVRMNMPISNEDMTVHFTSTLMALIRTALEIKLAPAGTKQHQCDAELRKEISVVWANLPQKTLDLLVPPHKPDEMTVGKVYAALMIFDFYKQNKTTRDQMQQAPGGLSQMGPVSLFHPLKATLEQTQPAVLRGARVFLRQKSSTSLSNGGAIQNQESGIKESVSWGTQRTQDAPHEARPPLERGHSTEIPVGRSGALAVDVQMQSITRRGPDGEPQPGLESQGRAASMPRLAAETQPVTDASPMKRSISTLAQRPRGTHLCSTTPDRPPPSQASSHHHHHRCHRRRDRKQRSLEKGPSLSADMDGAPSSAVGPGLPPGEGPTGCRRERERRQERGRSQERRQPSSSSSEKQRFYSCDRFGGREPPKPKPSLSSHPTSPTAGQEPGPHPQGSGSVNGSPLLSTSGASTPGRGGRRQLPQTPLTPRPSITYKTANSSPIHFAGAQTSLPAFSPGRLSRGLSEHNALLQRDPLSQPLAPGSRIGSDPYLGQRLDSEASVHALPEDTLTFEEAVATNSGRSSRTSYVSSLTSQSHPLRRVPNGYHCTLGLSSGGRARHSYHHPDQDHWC
T2 sequence (P54290 25-944): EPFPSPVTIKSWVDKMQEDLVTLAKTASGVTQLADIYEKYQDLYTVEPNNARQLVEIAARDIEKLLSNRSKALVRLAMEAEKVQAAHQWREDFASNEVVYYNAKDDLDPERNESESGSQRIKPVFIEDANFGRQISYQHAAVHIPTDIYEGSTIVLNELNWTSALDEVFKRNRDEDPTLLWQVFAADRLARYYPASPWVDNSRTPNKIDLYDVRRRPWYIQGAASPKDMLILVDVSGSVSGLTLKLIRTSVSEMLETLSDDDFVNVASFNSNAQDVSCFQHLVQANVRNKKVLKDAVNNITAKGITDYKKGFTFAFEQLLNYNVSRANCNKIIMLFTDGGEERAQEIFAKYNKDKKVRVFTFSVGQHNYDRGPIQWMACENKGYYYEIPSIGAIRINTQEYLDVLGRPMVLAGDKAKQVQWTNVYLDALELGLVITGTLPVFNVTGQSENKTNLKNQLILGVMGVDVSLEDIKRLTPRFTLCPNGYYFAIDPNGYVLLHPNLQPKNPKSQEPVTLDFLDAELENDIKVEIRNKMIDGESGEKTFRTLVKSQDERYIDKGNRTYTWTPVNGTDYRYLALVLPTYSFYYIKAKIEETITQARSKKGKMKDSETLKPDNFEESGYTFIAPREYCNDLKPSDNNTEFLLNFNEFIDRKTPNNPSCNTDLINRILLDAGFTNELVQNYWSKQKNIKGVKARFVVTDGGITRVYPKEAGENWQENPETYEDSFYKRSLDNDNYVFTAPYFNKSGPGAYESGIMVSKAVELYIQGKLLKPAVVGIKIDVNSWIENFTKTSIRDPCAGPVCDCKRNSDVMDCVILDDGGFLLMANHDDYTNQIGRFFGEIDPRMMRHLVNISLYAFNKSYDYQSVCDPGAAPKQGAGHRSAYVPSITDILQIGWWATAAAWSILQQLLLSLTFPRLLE
T2 sequence (P54290 945-1091): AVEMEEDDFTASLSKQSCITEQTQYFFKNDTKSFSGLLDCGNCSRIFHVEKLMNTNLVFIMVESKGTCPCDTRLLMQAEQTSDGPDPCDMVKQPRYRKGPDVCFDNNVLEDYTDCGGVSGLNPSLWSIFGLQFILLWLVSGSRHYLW
T2 sequence (Q02641 whole entry, further chain): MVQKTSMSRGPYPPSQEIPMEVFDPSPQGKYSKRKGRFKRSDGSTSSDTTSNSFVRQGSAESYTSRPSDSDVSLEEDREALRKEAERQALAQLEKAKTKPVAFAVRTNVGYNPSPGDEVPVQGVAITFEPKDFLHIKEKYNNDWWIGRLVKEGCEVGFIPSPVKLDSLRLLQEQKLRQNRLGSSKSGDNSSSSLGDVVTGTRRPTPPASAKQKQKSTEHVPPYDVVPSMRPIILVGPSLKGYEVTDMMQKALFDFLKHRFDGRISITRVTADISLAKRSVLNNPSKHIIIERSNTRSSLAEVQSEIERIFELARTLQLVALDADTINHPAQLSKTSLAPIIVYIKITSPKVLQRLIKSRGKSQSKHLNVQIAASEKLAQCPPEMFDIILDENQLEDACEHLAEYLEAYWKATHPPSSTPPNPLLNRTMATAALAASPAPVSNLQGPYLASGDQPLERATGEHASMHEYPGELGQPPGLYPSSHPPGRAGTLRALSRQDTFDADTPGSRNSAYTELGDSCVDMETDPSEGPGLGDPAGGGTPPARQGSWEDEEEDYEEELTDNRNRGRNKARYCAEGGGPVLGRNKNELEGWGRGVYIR

[2] = system: GluN1/GluN2A or GluN1/GluN2B NMDARs with or without α2δ-1 in HEK293 cells; assay: Whole-cell recording of NMDAR currents in HEK293 cells; assay type: cell-based, rat; design: α2δ-1 co-expression-induced increase in the NMDAR current density / NMDAR currents in cells expressing GluN1/GluN2A or GluN1/GluN2B alone: dose or concentration left out as unconfirmed
Text: Cell culture and transfection: HEK293 cells (American Type Culture Collection, Manassas, Va.) were maintained in Dulbecco's modified Eagle medium (DMEM) (#10-017-CV, Corning, Manassas, Va.) supplemented with 10% fetal bovine serum (#F4135, Sigma-Aldrich) and penicillin/streptomycin (#30-002-CI, Corning). Cells were passaged after they reached a confluence of 80-90%, approximately every 2 days. HEK293 cells were transfected using PolyJet reagents (#SL100688, SignaGen Laboratories, Gaithersburg, Md.) at a GluN1/GluN2/α2δ-1 ratio of 1:3:1 (the DNA:PolyJet ratio was 1:3).
Whole-cell recording of NMDAR currents in HEK293 cells: Whole-cell recording was performed using a fire-polished pipette (3-5 MΩ) pulled from borosilicate glass and filled with an intracellular solution containing (in mM) 135 CsF, 2 MgCl2, 0.5 CaCl2, 5 EGTA, 2 Mg-ATP and 10 HEPES (pH, 7.25; 285 mOsmol/L). The extracellular solution contained (in mM) 160 NaCl, 2.5 KCl, 0.2 CaCl2, 10 HEPES, and 10 glucose (pH, 7.35; 300-310 mOsmol/L). Whole-cell currents were recorded with an EPC-10 amplifier (HEKA Instruments, Lambrecht, Germany) at a holding potential of −60 mV. Signals were filtered at 1 kHz, digitized at 10 kHz and acquired using the Pulse program (HEKA Instruments). After the whole-cell configuration was established, the cell membrane capacitance and series resistance were electronically compensated for. Glycine (10 μM) and NMDA (300 μM) were used to elicit NMDAR currents. For voltage-dependent Mg^2+ block experiments, the conductance-voltage relation of NMDARs was assessed when 2 mM MgCl2 was added to the extracellular solution. The sensitivity of NMDARs to Mg^2+ was estimated by fitting current-voltage relationships to a Boltzmann function (Zhou et al., 2012). All HEK293 cell recording experiments were performed at 25° C.

Row | Compound | paclitaxel-induced pain hypersensitivity (tactile allodynia, mechanical and thermal hyperalgesia) (paclitaxel-treated rats) | direct interaction between α2δ-1 and GluN1 (α2δ-1-GluN1 interaction) | VACC (N-type Ca2+ channel) currents [1] | VACC (N-type Ca2+ channel) currents ([1]; listed as α2δ-1 Tat peptide) | α2δ-1 co-expression-induced increase in the NMDAR current density ([2]; HEK293) | NMDAR currents in cells expressing GluN1/GluN2A or GluN1/GluN2B alone ([2]; HEK293 without α2δ-1) | α2δ-1-reduced voltage-dependent Mg2+ block of GluN1/GluN2A NMDARs ([2]; at −40 and −60 mV)
1 | YGRKKRRQRRRVSGLNPSLWSIFGLQFILLWLVSGSRHYLW (a2d1 peptide) [α2δ-1Tat peptide, 30-amino-acid peptide mimicking the C-terminal domain of α2δ-1 fused to the cell-penetrating peptide Tat] | markedly attenuated | disrupted | no effect | had no significant effect |  |  | 
2 | NCC1(CC(=O)O)CCCCC1 [gabapentin] |  |  |  |  | completely reversed | had no effect | reversed this effect
